In patent US20220295849A1, “Steviol Glycoside Compositions for Oral Ingestion or Use” (CARGILL, Incorporated, priority 2016, published 2022):

Assays:
[1] = literature; cited from earlier work
[2] = Instantaneous solubility in deionized water at room temperature; assay type: physicochemical; conditions: for instantaneous solubility: water
Text: The composition can optionally be expressed in terms of the concentration of one or more steviol glycoside(s). Beneficially, it has been founds that compound(s) SG101-104 can improve solubility of steviol glycosides in an aqueous solution, and therefore compositions can be prepared having a greater concentration of steviol glycosides in solution. […] Clear solutions without precipitates are considered soluble. Unless indicated otherwise herein, the term “solubility” refers to “equilibrium solubility.”
Instantaneous solubility is determined by mixing steviol glycoside with deionized water vigorously for 10 minutes at room temperature. […] Clear solutions without precipitates are considered soluble.

[3] = Equilibrium solubility (80° C. for 15 minutes, cooled to room temperature, observed up to 4 days); assay type: physicochemical; conditions: for equilibrium solubility (soluble/insoluble): 80° C. 15 minutes, then room temperature up to 4 days; for equilibrium solubility: heated to 80° C. for 15 minutes, room temperature, at least 4 days
Text: The composition can optionally be expressed in terms of the concentration of one or more steviol glycoside(s). Beneficially, it has been founds that compound(s) SG101-104 can improve solubility of steviol glycosides in an aqueous solution, and therefore compositions can be prepared having a greater concentration of steviol glycosides in solution. […] Clear solutions without precipitates are considered soluble. Unless indicated otherwise herein, the term “solubility” refers to “equilibrium solubility.” […]

[4] = literature; cited from earlier work; remark: listed apart in the source
[5] = Sensory evaluation (tasting) of glycoside solutions in unsweetened black tea, Test A; assay type: in vivo
Procedure: (§1) Glycoside samples (SG101-104) were isolated and purified from fermentation broth, purified Rebs A, B, and D are of leaf origin and Reb M is chemically synthesized. All samples were dissolved in reverse osmosis water at the concentrations indicated. Unsweetened black tea was used in one set of experiments. Approximately 2-3 milliliters of each solution was tasted and sensory evaluations conducted by two individuals. In one set of experiments a third individual also tasted.

[6] = Sensory evaluation (tasting) of glycoside solutions in reverse osmosis water, Test A and Test B; assay type: in vivo; conditions: for summary of sensory evaluation: summary of Example 5
Procedure: as §1

[7] = Sucrose equivalent value (SEV) in citric acid buffer; assay type: in vivo; conditions: for SEV: citric acid buffer at pH=3.0; for Sucrose equivalent value / relative sweetness scale-sucrose = 1: 250 ppm in citric buffer, pH = 3.0
Text: Sweetness may be determined by measuring sucrose equivalent values (SEV) using methods and processes well known to those skilled in the art. For example, SEV may be determined by measuring sweetness equivalence to a reference sucrose solution. Typically, taste panelists are trained to detect and scale sweetness of reference sucrose solutions containing between 10 g to 150 g/kg sucrose. A sweetener composition containing one or more glycosides are then tasted at a series of dilutions to determine the concentration of the sweetener composition that is as sweet as a given sucrose reference. For example, if a sweetener composition is as sweet as 50 g/kg of sucrose solution in a citric acid buffer at pH 3.1, then the sweetener composition is assigned a SEV of 5.
For example, SEVs for SG101 and SG102 at 200 ppm are 0.6 and 1.0, respectively; SEV=1.6 for SG101 at 500 ppm and SEV=1.2 at 400 ppm; and SEV=1.5 for SG102 at 400 ppm (as measured in a citric acid buffer at pH=3.0). Thus, at ppm<500, SG101 may be employed as a sensory modifier, and at ppm<400, SG102 may be employed as a sensory modifier in a beverage.

[8] = Test A, 200 ppm in water, three experienced taste testers
[9] = SG compound alone in tea, about 200 ppm (Table 7)

C=C1C[C@@]23CC[C@H]4[C@@](C)(CCC[C@@]4(C)C(=O)O[C@@H]4O[C@H](CO)[C@@H](O)[C@H](O)[C@H]4O)[C@@H]2CC[C@]1(O[C@@H]1O[C@H](CO)[C@@H](O)[C@H](O[C@@H]2O[C@H](CO)[C@@H](O)[C@H](O)[C@H]2O)[C@H]1O[C@@H]1O[C@H](CO)[C@@H](O)[C@H](O)[C@H]1O)C3 [Reb A, rebaudioside A]
taste properties [1]: has off-taste issues

C=C1C[C@@]23CC[C@H]4[C@@](C)(CCC[C@@]4(C)C(=O)O[C@@H]4O[C@H](CO)[C@@H](O)[C@H](O)[C@H]4O[C@@H]4O[C@H](CO)[C@@H](O)[C@H](O)[C@H]4O)[C@@H]2CC[C@]1(O[C@@H]1O[C@H](CO)[C@@H](O)[C@H](O[C@@H]2O[C@H](CO)[C@@H](O)[C@H](O)[C@H]2O)[C@H]1O[C@@H]1O[C@H](CO)[C@@H](O)[C@H](O)[C@H]1O)C3 [Reb D, rebaudioside D]
instantaneous solubility (soluble/insoluble) ([2]; 0.08% in deionized water, clear solution without precipitates = soluble): insoluble | instantaneous solubility (soluble/insoluble) ([2]; 0.10% in deionized water): insoluble | instantaneous solubility (soluble/insoluble) ([2]; 0.15% in deionized water): insoluble | instantaneous solubility (soluble/insoluble) ([2]; 0.20% in deionized water): insoluble | instantaneous solubility [2]: < 0.08% | instantaneous solubility ([2]; listed as rebaudioside D): less than 0.08% | equilibrium solubility (soluble/insoluble) ([3]; 0.08%): soluble | equilibrium solubility (soluble/insoluble) ([3]; 0.10%): insoluble | equilibrium solubility (soluble/insoluble) ([3]; 0.15%): insoluble | equilibrium solubility (soluble/insoluble) ([3]; 0.20%): insoluble | equilibrium solubility [3]: 0.08% | aqueous solubility [4]: low solubility in water at room temperature | taste properties [1]: slow onset of sweetness and was very clean | times sweeter than sucrose [1]: 200-220 times

C=C1C[C@@]23CC[C@H]4[C@@](C)(CCC[C@@]4(C)C(=O)O[C@@H]4O[C@H](CO)[C@@H](O)[C@H](O[C@@H]5O[C@H](CO)[C@@H](O)[C@H](O)[C@H]5O)[C@H]4O[C@@H]4O[C@H](CO)[C@@H](O)[C@H](O)[C@H]4O)[C@@H]2CC[C@]1(O[C@@H]1O[C@H](CO)[C@@H](O)[C@H](O[C@@H]2O[C@H](CO)[C@@H](O)[C@H](O)[C@H]2O)[C@H]1O[C@@H]1O[C@H](CO)[C@@H](O)[C@H](O)[C@H]1O)C3 [Reb M, rebaudioside M]
sensory comments ([5]; Reb M alone in tea, concentration not stated (200.4 and 401.0 ppm prepared)): Nice subtle sweetness, feels like sugar, but with long linger very good | instantaneous solubility (soluble/insoluble) ([2]; 0.10% in deionized water): soluble | instantaneous solubility (soluble/insoluble) ([2]; 0.13% in deionized water): soluble | instantaneous solubility (soluble/insoluble) ([2]; 0.20% in deionized water): insoluble | instantaneous solubility (soluble/insoluble) ([2]; 0.30% in deionized water): insoluble | instantaneous solubility [2]: at least 0.13% | instantaneous solubility ([2]; listed as rebaudioside M): about 0.13% | equilibrium solubility (soluble/insoluble) ([3]; 0.10%): soluble | equilibrium solubility (soluble/insoluble) ([3]; 0.13%): soluble | equilibrium solubility (soluble/insoluble) ([3]; 0.20%): soluble | equilibrium solubility (soluble/insoluble) ([3]; 0.30%): insoluble | equilibrium solubility [3]: at least 0.2% | equilibrium solubility ([3]; listed as rebaudioside M): about 0.2% | aqueous solubility [4]: poor aqueous solubility and dissolution qualities in beverage formulations | sensory comments [6, 8]: Typical mid-sweet for Reb M, fairly well rounded, quick rise, some tailing, some bitter | sensory comments ([6]; Test A, 400 ppm in water): Higher sweet, faster onset than 200 ppm, cotton candy sweetness—skews to HFCS longer linger, sharper bitterness—but not oppressing sweetness | sensory comments ([6]; Test B, Reb M alone in water, concentration not stated (200-398 ppm prepared)): clean, sweet, spiky sweetness | taste properties [1]: has higher sweetness intensity and is more potent than other steviol glycosides

C=C1C[C@@]23CCC4[C@](C)(C(=O)OC5OC(CO)C(O)C(O)C5OC5OC(CO)C(O)C(O)C5O)CCC[C@@]4(C)[C@@H]2CCC1(OC1OC(COC2OC(CO)C(O)C(O)C2O)C(O)C(OC2OC(CO)C(O)C(O)C2O)C1OC1OC(CO)C(O)C(O)C1O)C3 (stereo partly drawn) [SG101]
sensory comments [5, 9]: Zero sweetness, seems less than in water, naked tea | sensory comments [6, 8]: not sweet, astringent, cloying—mouth drying on the tongue | summary of sensory evaluation [6]: less sweet than SG103 and SG104 | SEV ([7]; 200 ppm): 0.6 | SEV ([7]; 400 ppm): 1.2 | SEV ([7]; 500 ppm): 1.6

C=C1C[C@@]23CCC4[C@](C)(C(=O)OC5OC(CO)C(O)C(OC6OC(CO)C(O)C(O)C6O)C5OC5OC(CO)C(O)C(O)C5O)CCC[C@@]4(C)[C@@H]2CCC1(OC1OC(COC2OC(CO)C(O)C(O)C2O)C(O)C(OC2OC(CO)C(O)C(O)C2O)C1OC1OC(CO)C(O)C(O)C1O)C3 (stereo partly drawn) [SG102]
sensory comments [5, 9]: Not sweet, slightly less astringent, some additional roundedness | sensory comments [6, 8]: a bit sweeter than 1-1, sweetness does have quick onset | summary of sensory evaluation [6]: less sweet than SG103 and SG104 | SEV ([7]; 200 ppm): 1.0 | SEV ([7]; 400 ppm): 1.5

C=C1C[C@@]23CCC4[C@](C)(C(=O)OC5OC(CO)C(O)C(O)C5OC5OC(CO)C(O)C(O)C5O)CCC[C@@]4(C)[C@@H]2CCC1(OC1OC(CO)C(O)C(OC2OC(COC4OC(CO)C(O)C(O)C4O)C(O)C(O)C2O)C1OC1OC(CO)C(O)C(O)C1O)C3 (stereo partly drawn) [SG103]
sensory comments [5, 9]: Slower onset than Reb M by itself, not as sweet as Reb M, slightly more licorice aftertaste | sensory comments [6, 8]: as sweet or sweeter than 200 ppm Reb M, more sucrosey, sugary quality characteristics (high fructose corn syrup (HFCS), cotton candy notes) are reminiscent of Reb M at 400 ppm but not as sweet, “fuller” feeling | summary of sensory evaluation [6]: good sole sweeteners | Sucrose equivalent value [7]: 4.8 | relative sweetness scale-sucrose = 1 [7]: 192X

C=C1C[C@@]23CCC4[C@](C)(C(=O)OC5OC(CO)C(O)C(OC6OC(CO)C(O)C(O)C6O)C5OC5OC(CO)C(O)C(O)C5O)CCC[C@@]4(C)[C@@H]2CCC1(OC1OC(CO)C(O)C(OC2OC(COC4OC(CO)C(O)C(O)C4O)C(O)C(O)C2O)C1OC1OC(CO)C(O)C(O)C1O)C3 (stereo partly drawn) [SG104]
sensory comments [5, 9]: As sweet as Reb M, very sucrosey compared to Reb M, a little back end licorice | sensory comments [6, 8]: as sweet or sweeter than 200 ppm Reb M, more rounded sweetness, enhanced sugar quality effects (sensations reminiscent of sucrose, vanilla), “fuller” feeling | summary of sensory evaluation [6]: good sole sweeteners | Sucrose equivalent value [7]: 6.5 | relative sweetness scale-sucrose = 1 [7]: 260X
